Entries after “also recorded” stand apart in the source; their conditions may differ.

The record followed here is patent US20250051266A1, “Novel GLV-Phenolamide: Biosynthesis and Function in Protecting Plants from Herbivore Attack” (Max-Planck-Gesellschaft zur Förderung der Wissenschaften …, priority 2021, published 2025).

The experiment deals with Empoasca leafhoppers. As to the kind of experiment: In vivo Empoasca choice assay, compounds infiltrated into irMYC2 leaves. To be noted: synthetic CoP 7 μM, CP 100 μM, FP 10 μM in 0.1% DMSO infiltrated into irMYC2 leaves. Also on record: species or system Empoasca decipiens. On the procedure: The spermi-dine-derived metabolites could be excluded as mediators of Empoasca nonhost resistance based on the lack of responses of leafhoppers to the irDH29 and irCV86 lines (FIG. 5). To further explore the involvement of CoP, CP and FP, in vivo Empoasca choice assays were conducted by individually infiltrating physiologically relevant concentrations of synthetic CoP (7 μM), CP (100 μM) and FP (10 μM) into leaves of irMYC2 plants which were devoid of elicited phenolamides (FIG. 9 and FIG. 34).
Two replicates of the 650 RILs from a 26-parent MAGIC population and their 26 parental 5 lines were planted at the WCCER field station, Prescott, Arizona, USA. To elicit a standardized herbivory response, leaves of all RILs, which were in the early-flowering stage were wounded and immediately treated with diluted Manduca sexta oral secretions (W+OS) or left untreated (control) and harvested on dry ice at 1 h and 72h. One week after metabolite sampling, all plants of the field population were screened for natural Empoasca leafhopper numbers and damage; these leafhoppers had opportunistically sampled the N. attenuata plants from neighboring native cu-cumber hostplants. The mQTL and eQTL mapping between SNPs and the relative abundance of each compound or transcript using a set of 646 RILs of the MAGIC population was done with the R package software GAPIT using General linear models (GLM). The multi-omics co-association network was built from correlations among metabolomes, transcriptomes, phytohormones and SNPs. […] Metabolome diversity and specialization and metabolic specificity was calculated using information theory by consider-ing the Shannon entropy of the idMS/MS frequency distributions. […] OS-induced volatile emissions were collected using polydimethylsiloxane (PDMS) tubing from 650 MAGIC RILs planted in the main MPI-CE glasshouse and analyzed bythermal desorption-gas chromatography-mass spectrometry (TD-GC-MS). […]

In the case of N-coumaroylputrescine [CoP], the “preference of Empoasca for irMYC2 plants” value is listed as “did not alter the preference; also recorded: not affecting leafhopper behavior or performance”.
